The values below come from DBAASP.

Some test systems named below: Candida krusei DSM 70079; Bacillus subtilis; Enterococcus faecalis; Escherichia coli O111:B4.
What all share (experiment): ≥ marks a high value that may be exact or a test limit, other limits are often not marked, values filed in µg/mL are converted to µM
Test [1] concerns Escherichia coli ATCC 25922.
In test [2] the test system is Trichophyton mentagrophytes ATCC 32510.
Test [3] has as its system Aspergillus niger ATCC 9142.
The test system of test [4] is Candida glabrata ATCC 90030.
The subject of test [5] is Enterococcus faecalis ATCC 29212.
For test [6], the system named is Aspergillus fumigatus ATCC 1022.
Test [7] has as its system Aspergillus flavus ATCC 24109.
The subject of test [8] is Cryptococcus neoformans ATCC 2517.
Test [9] relates to Staphylococcus aureus ATCC 25923.
Test [10] has as its system Saccharomyces cerevisiae PTCC 5052.
In test [11] the test system is Candida albicans ATCC 10231.
Test [12] relates to Bacillus subtilis ATCC 6051.
Test [13] has as its system Microsporum canis PTCC 5069.
Test [14] deals with Pseudomonas aeruginosa ATCC 27853.
The subject of test [15] is Candida krusei ATCC 28870.
In test [16] the test system is Aspergillus flavus PFCC 100.
Test [17] concerns Aspergillus fumigatus Af293.
Test [18] concerns Aspergillus niger ATCC 9029.
Test [19] concerns Staphylococcus epidermidis.
The test system of test [20] is Salmonella typhimurium C610.
Test [21] concerns Pseudomonas aeruginosa H103.
For test [22], the system named is Staphylococcus aureus SAP 0017.
For test [23], the system named is Staphylococcus aureus K147.
The subject of test [24] is Bacillus megaterium CIP 51.17.
For test [25], the system named is Escherichia coli CIP 54.8T.
Test [26] concerns Bacillus subtilis ATCC 6633.
Test [27] deals with Escherichia coli DSM 1103.
The subject of test [28] is Escherichia coli DH5alpha.
The test system of test [29] is Micrococcus luteus DSM 1790.
The subject of test [30] is Kocuria rhizophila DSM 348.
Test [31] deals with Staphylococcus aureus DSM 1104.
Test [32] has as its system Enterobacter cloacae ATCC 23355.
The test system of test [33] is Escherichia coli CCT 1371.
Test [34] relates to Staphylococcus aureus ATCC 6538.
In test [35] the test system is Staphylococcus saprophyticus.
For test [36], the system named is Bacillus subtilis CCT 2471.

Structures are written as SMILES. Converted amounts (≈) assume the structure as drawn.

For `CC[C@H](C)[C@H](NC(=O)[C@H](CCCCN)NC(=O)[C@H](Cc1ccccc1)NC(=O)[C@@H](N)Cc1c[nH]c2ccccc12)C(=O)N[C@H](C(=O)N[C@@H](CCCCN)C(=O)N[C@@H](CCCCN)C(=O)O)[C@@H](C)CC` [WFKIIKK], the MIC in [1] was greater than 1040 µM; in [2] it was no less than 65 µM; in [3], no less than 130 µM; in [4], no less than 130 µM; in [5], greater than 1040 µM; in test [6], 7.59 µM (≈ 7.3 µg/mL). The MIC in test [7] was no less than 1040 µM; in test [8] it was no less than 1040 µM; in test [9], greater than 1040 µM; in [10] it was 16.6 µM (≈ 16 µg/mL); in [11] it was 16.6 µM (≈ 16 µg/mL); in test [12] it was no less than 1040 µM. Also, the MIC was no less than 130 µM in [13], greater than 1040 µM in test [14] and no less than 33.3 µM in [15].

Turning to `CC[C@H](C)[C@H](NC(=O)[C@@H](NC(=O)[C@H](CCCCN)NC(=O)[C@H](CC(=O)O)NC(=O)[C@H](C)NC(=O)[C@H](CCC(N)=O)NC(=O)[C@H](CCCN=C(N)N)NC(=O)[C@@H](NC(=O)[C@H](CO)NC(=O)CNC(=O)[C@H](CCCN=C(N)N)NC(=O)[C@H](CCC(=O)O)NC(=O)[C@H](Cc1c[nH]c2ccccc12)NC(=O)[C@@H](NC(=O)[C@H](CS)NC(=O)[C@H](CC(C)C)NC(=O)[C@H](CCC(=O)O)NC(=O)[C@H](CCC(N)=O)NC(=O)[C@H](CCCCN)NC(=O)[C@H](CO)NC(=O)[C@@H](NC(=O)[C@H](CCCN=C(N)N)NC(=O)CN)[C@@H](C)O)[C@@H](C)O)C(C)C)[C@@H](C)O)C(=O)N[C@@H](C)C(=O)NCC(=O)O` [GRTSKQELCTWERGSVRQADKTIAG], the MIC came to 19.8 µM (≈ 55 µg/mL) in [4]; 23.4 µM (≈ 65 µg/mL) in test [16]; 20.7 µM (≈ 57.5 µg/mL) in test [17]; 21.6 µM (≈ 60 µg/mL) in test [11]; 20.7 µM (≈ 57.5 µg/mL) in the test on Candida krusei DSM 70079; 22.5 µM (≈ 62.5 µg/mL) in test [18].

In the case of `CC[C@H](C)[C@H](NC(=O)[C@H](C)NC(=O)[C@@H]1CCCN1C(=O)CNC(=O)[C@H](C)NC(=O)[C@@H](NC(=O)[C@H](CCCCN)NC(=O)[C@H](CC(C)C)NC(=O)CNC(=O)[C@H](CO)NC(=O)[C@H](CC(C)C)NC(=O)[C@@H](NC(=O)[C@H](CCCN=C(N)N)NC(=O)[C@H](CCCN=C(N)N)NC(=O)[C@H](Cc1c[nH]c2ccccc12)NC(=O)[C@H](Cc1c[nH]c2ccccc12)NC(=O)[C@H](CCCCN)NC(=O)[C@@H](N)CCCCN)C(C)C)[C@@H](C)O)C(=O)N[C@@H](CCC(N)=O)C(=O)N[C@@H](CO)C(=O)N[C@H](C(=O)N[C@@H](CC(C)C)C(=O)N[C@@H](CC(N)=O)C(=O)N[C@@H](CCCCN)C(=O)O)C(C)C` [KKWWRRVLSGLKTAGPAIQSVLNK], the minimal inhibitory concentration (MIC) is no less than 46.8 µM in test [19]; 5.85 µM (≈ 16 µg/mL) in [20]; 23.4 µM (≈ 64 µg/mL) in [21]; no less than 46.8 µM against Bacillus subtilis; no less than 46.8 µM against Enterococcus faecalis; no less than 46.8 µM in test [22]. In addition, the MIC was 5.85 µM (≈ 16 µg/mL) against Escherichia coli O111:B4 and no less than 46.8 µM in test [23].

Regarding `CC[C@H](C)[C@H](NC(=O)[C@H](CCCN=C(N)N)NC(=O)[C@H](CC(N)=O)NC(=O)[C@H](CC(C)C)NC(=O)[C@H](Cc1ccccc1)NC(=O)[C@H](CCCN=C(N)N)NC(=O)[C@H](Cc1ccccc1)NC(=O)[C@H](CCCN=C(N)N)NC(=O)[C@@H](NC(=O)[C@H](CC(C)C)NC(=O)[C@@H](NC(=O)[C@@H](N)C(C)C)[C@@H](C)CC)[C@@H](C)O)C(=O)N[C@H](C(=O)N[C@@H](CCC(=O)O)C(=O)N1CCC[C@H]1C(=O)N[C@@H](CC(C)C)C(=O)N[C@@H](CC(C)C)C(=O)N[C@@H](CCCCN)C(=O)N[C@@H](CCCCN)C(=O)N[C@@H](C)C(=O)O)C(C)C` [VILTRFRFLNRIVEPLLKKA], the MIC in [24] is no less than 100 µM; in [25] it was no less than 35.4 µM.

Consider `CC(C)C[C@H](NC(=O)[C@H](C)NC(=O)[C@H](CCCCN)NC(=O)[C@H](CC(C)C)NC(=O)[C@H](C)NC(=O)[C@H](CC(C)C)NC(=O)[C@H](CCCCN)NC(=O)[C@H](CC(C)C)NC(=O)[C@H](C)NC(=O)[C@H](CC(C)C)NC(=O)[C@@H](N)CCCCN)C(=O)N[C@@H](CCCCN)C(=O)N[C@@H](C)C(=O)N[C@@H](C)C(=O)N[C@@H](CC(C)C)C(=O)N[C@@H](CCCCN)C(=O)N[C@@H](CC(C)C)C(=O)N[C@@H](C)C(=O)O` [KLALKLALKALKAALKLA], for which the minimal inhibitory concentration (MIC) in [26], in test [27], in test [28], in [29], in [30] and in [31] was no less than 68.2 µM each time.

Consider `CC[C@H](C)[C@H](NC(=O)CNC(=O)[C@H](CCSC)NC(=O)[C@H](CC(C)C)NC(=O)[C@H](CCCCN)NC(=O)[C@@H](N)CC(C)C)C(=O)N[C@H](C(=O)N[C@@H](CCCCN)C(=O)N[C@@H](CCCCN)C(=O)N[C@H](C(=O)N[C@@H](CC(C)C)C(=O)NCC(=O)N[C@@H](C)C(=O)N[C@@H](CC(C)C)C(N)=O)C(C)C)C(C)C` [LKLMGIVKKVLGAL], for which the MIC in test [19] was no less than 34 µM; in test [1], 7 µM (≈ 10.4 µg/mL); in [32], 17 µM (≈ 25.2 µg/mL); in test [33], 17 µM (≈ 25.2 µg/mL); in [34] it was 34 µM (≈ 50.4 µg/mL); in test [35], 3 µM (≈ 4.45 µg/mL). The MIC is 7 µM (≈ 10.4 µg/mL) in test [9] and no less than 68 µM in test [36].

Broadly, the MIC is the lowest concentration found to suppress growth.
